The text below walks through data of PubChem BioAssay (NCI).

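Tested at 5 concentrations; 48 h exposure; 96-well plates; endpoints linearly interpolated, else capped at highest concentration. Definition used: TGI = concentration required for complete inhibition of growth.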 Bounds are passed on as bounds.

Some test systems named below: OVCAR-3 ovarian; MCF7 breast; BT-549 breast; NCI/ADR-RES ovarian; MOLT-4 leukemia; IGROV1 ovarian; SW-620 colon; OVCAR-8 ovarian; SNB-75 CNS; T-47D breast.
Experiment in all cases: NCI-60 cell line screen, 48 h

As for `NC(=O)C(N)Cc1ccc(O)cn1` (stereo not drawn), the TGI in the assay on OVCAR-3 ovarian, in the assay on MCF7 breast, in the assay on BT-549 breast, in the assay with NCI/ADR-RES ovarian, in the assay with MOLT-4 leukemia and in the assay on IGROV1 ovarian was greater than 100 µM each time. Also, the TGI with SW-620 colon, in the assay with OVCAR-8 ovarian and with SNB-75 CNS was greater than 100 µM throughout.

On to `CC(=O)OCCn1cnc2nc(Nc3ccccc3)nc(Cl)c21`, for which the TGI in the assay with T-47D breast, in the assay with OVCAR-3 ovarian, with MCF7 breast, in the assay with NCI/ADR-RES ovarian, with MOLT-4 leukemia and in the assay with IGROV1 ovarian was greater than 100 µM throughout. The TGI in the assay with SW-620 colon and in the assay on OVCAR-8 ovarian was greater than 100 µM each time.

On to `COCCOCc1nc(C#N)c(N)o1`, for which the TGI in the assay on T-47D breast, in the assay on OVCAR-3 ovarian, with MCF7 breast, in the assay on NCI/ADR-RES ovarian, with MOLT-4 leukemia and in the assay with IGROV1 ovarian was greater than 100 µM throughout. The TGI in the assay on SW-620 colon and in the assay on SNB-75 CNS was greater than 100 µM each time.

Consider `O/N=C1/COC(C(F)(F)F)(C(F)(F)F)C1`, for which the TGI in the assay on T-47D breast, in the assay with OVCAR-3 ovarian, with MCF7 breast, in the assay on NCI/ADR-RES ovarian, with MOLT-4 leukemia and in the assay on IGROV1 ovarian was greater than 100 µM throughout. The TGI with SW-620 colon, with OVCAR-8 ovarian and in the assay on SNB-75 CNS was greater than 100 µM in each case.

With `Cc1cc(=O)[nH]c(NN2C(Cl)C(=O)C2c2cccc(O)c2)n1` (stereo not drawn), the TGI in the assay with OVCAR-3 ovarian was 27.4 µM; in the assay with MOLT-4 leukemia, greater than 100 µM; in the assay on IGROV1 ovarian, greater than 100 µM; with SW-620 colon it was greater than 100 µM; in the assay on OVCAR-8 ovarian, greater than 100 µM; in the assay with SNB-75 CNS it was 6.73 µM.

As to `O=NN(CCCl)C(=O)NC1CCSc2ccccc21` (stereo not drawn), the TGI in the assay with OVCAR-3 ovarian is greater than 100 µM; in the assay with MCF7 breast it was greater than 100 µM; in the assay with NCI/ADR-RES ovarian, greater than 100 µM; in the assay with MOLT-4 leukemia it was 99.1 µM; in the assay with IGROV1 ovarian it was greater than 100 µM; in the assay with SW-620 colon, greater than 100 µM. The TGI with OVCAR-8 ovarian and in the assay on SNB-75 CNS was greater than 100 µM in each case.

As for `CC(C)(Cc1ccccc1)NC1=NCCO1`, the TGI with OVCAR-3 ovarian, in the assay on MCF7 breast, in the assay with BT-549 breast, with NCI/ADR-RES ovarian, in the assay with MOLT-4 leukemia and in the assay on IGROV1 ovarian was greater than 100 µM throughout. For the same molecule, the TGI in the assay with SW-620 colon, with OVCAR-8 ovarian and with SNB-75 CNS was greater than 100 µM throughout.

Turning to `COc1ccc(C(=O)Sc2c(-c3ccccc3)c(=O)n(-c3ccccc3)c(=S)n2-c2ccccc2)cc1`, the TGI in the assay on T-47D breast is greater than 100 µM; with OVCAR-3 ovarian, greater than 100 µM; with MCF7 breast, greater than 100 µM; in the assay on NCI/ADR-RES ovarian, greater than 100 µM; in the assay on MOLT-4 leukemia it was 56.1 µM; with IGROV1 ovarian, 26.4 µM. Also, the TGI with SW-620 colon, in the assay with OVCAR-8 ovarian and with SNB-75 CNS was greater than 100 µM in each case.

For `O=[N+]([O-])c1ccccc1S(=O)(=O)c1cc(Cl)cc2c1NCCC2`, the TGI in the assay on OVCAR-3 ovarian, in the assay with MCF7 breast, in the assay on BT-549 breast, in the assay with NCI/ADR-RES ovarian, in the assay on MOLT-4 leukemia and in the assay with IGROV1 ovarian was greater than 100 µM each time. For the same molecule, the TGI in the assay on SW-620 colon, with OVCAR-8 ovarian and with SNB-75 CNS was greater than 100 µM in each case.

Regarding `C[C@@H]1C[C@H]2[C@@H]3CCC4=CC(=O)C=C[C@]4(C)[C@@]3(Cl)[C@@H](Cl)C[C@]2(C)[C@@]1(O)C(=O)COP(=O)(O)O`, the TGI in the assay with T-47D breast, with OVCAR-3 ovarian, in the assay with MCF7 breast, with BT-549 breast, in the assay on MOLT-4 leukemia and in the assay on IGROV1 ovarian was greater than 100 µM throughout. For the same molecule, the TGI with SW-620 colon, in the assay with OVCAR-8 ovarian and in the assay on SNB-75 CNS was greater than 100 µM each time.

Consider `C[C@]12CC[C@H](O)CC1=CC[C@@H]1[C@@H]2CC[C@]2(C)C(=O)[C@@H](N3CCOCC3)C[C@@H]12`, for which the TGI in the assay on T-47D breast, in the assay on OVCAR-3 ovarian, in the assay with MCF7 breast, in the assay on NCI/ADR-RES ovarian, with MOLT-4 leukemia and in the assay with IGROV1 ovarian was greater than 100 µM throughout. The TGI with SW-620 colon was greater than 100 µM; in the assay with OVCAR-8 ovarian it was greater than 100 µM; in the assay with SNB-75 CNS, 99.2 µM.

`Cc1ccc(S(=O)(=O)Oc2cc(-c3ccccc3)nc3ccccc23)cc1`: the TGI in the assay with OVCAR-3 ovarian was 5.73 µM; in the assay with MCF7 breast, greater than 48.4 µM; in the assay with NCI/ADR-RES ovarian, 11.6 µM; in the assay with MOLT-4 leukemia, greater than 100 µM; in the assay with IGROV1 ovarian it was 22.2 µM; with SW-620 colon, greater than 47.3 µM. Moreover, the TGI is greater than 77.6 µM in the assay on OVCAR-8 ovarian and 6.93 µM in the assay with SNB-75 CNS.

As for `O=S(=O)(c1ccccc1)n1c2cc3cccnc3nc2c2cccnc21`, the TGI in the assay with OVCAR-3 ovarian, with MCF7 breast, with BT-549 breast, in the assay with NCI/ADR-RES ovarian, in the assay with MOLT-4 leukemia and in the assay with IGROV1 ovarian was greater than 100 µM each time. Moreover, the TGI in the assay on SW-620 colon, in the assay with OVCAR-8 ovarian and in the assay on SNB-75 CNS was greater than 100 µM each time.

Consider `COc1ccc(C2CC(=O)CC(c3ccc(OC)cc3)C23C(=O)NC(=O)NC3=O)cc1` (stereo not drawn), for which the TGI in the assay with OVCAR-3 ovarian was 44.4 µM; with MCF7 breast, greater than 100 µM; in the assay on BT-549 breast it was greater than 100 µM; with NCI/ADR-RES ovarian it was greater than 100 µM; with MOLT-4 leukemia, 64.8 µM; in the assay with IGROV1 ovarian, 80 µM. Further, the TGI was 50.2 µM in the assay with SW-620 colon, greater than 100 µM in the assay with OVCAR-8 ovarian and 67.1 µM with SNB-75 CNS.

As for `S=C(NCc1ccccc1)c1nc[nH]c1C(=S)NCc1ccccc1`, the TGI in the assay on T-47D breast turned out to be 17.4 µM; in the assay on OVCAR-3 ovarian it was 18.8 µM; in the assay on BT-549 breast it was 27.2 µM; in the assay on NCI/ADR-RES ovarian, 16.3 µM; with MOLT-4 leukemia, 25.4 µM; in the assay on IGROV1 ovarian it was 19.8 µM. In addition, the TGI stood at 20.8 µM in the assay with SW-620 colon, 18.8 µM in the assay with OVCAR-8 ovarian and 19.5 µM in the assay with SNB-75 CNS.
